Experimental data published in ChEMBL document CHEMBL2074400, “Transporter-mediated renal handling of nafamostat mesilate” (J Pharm Sci, 2004).

Molecular target: ATP-dependent translocase ABCB1 (Homo sapiens, UniProt P08183)
Experiment: TP_TRANSPORTER: transepithelial transport in LLC-GA5-COL150 cells
Assay type: functional, cell-based
Conditions: pig

ATP-dependent translocase ABCB1, sequence (P08183 whole entry): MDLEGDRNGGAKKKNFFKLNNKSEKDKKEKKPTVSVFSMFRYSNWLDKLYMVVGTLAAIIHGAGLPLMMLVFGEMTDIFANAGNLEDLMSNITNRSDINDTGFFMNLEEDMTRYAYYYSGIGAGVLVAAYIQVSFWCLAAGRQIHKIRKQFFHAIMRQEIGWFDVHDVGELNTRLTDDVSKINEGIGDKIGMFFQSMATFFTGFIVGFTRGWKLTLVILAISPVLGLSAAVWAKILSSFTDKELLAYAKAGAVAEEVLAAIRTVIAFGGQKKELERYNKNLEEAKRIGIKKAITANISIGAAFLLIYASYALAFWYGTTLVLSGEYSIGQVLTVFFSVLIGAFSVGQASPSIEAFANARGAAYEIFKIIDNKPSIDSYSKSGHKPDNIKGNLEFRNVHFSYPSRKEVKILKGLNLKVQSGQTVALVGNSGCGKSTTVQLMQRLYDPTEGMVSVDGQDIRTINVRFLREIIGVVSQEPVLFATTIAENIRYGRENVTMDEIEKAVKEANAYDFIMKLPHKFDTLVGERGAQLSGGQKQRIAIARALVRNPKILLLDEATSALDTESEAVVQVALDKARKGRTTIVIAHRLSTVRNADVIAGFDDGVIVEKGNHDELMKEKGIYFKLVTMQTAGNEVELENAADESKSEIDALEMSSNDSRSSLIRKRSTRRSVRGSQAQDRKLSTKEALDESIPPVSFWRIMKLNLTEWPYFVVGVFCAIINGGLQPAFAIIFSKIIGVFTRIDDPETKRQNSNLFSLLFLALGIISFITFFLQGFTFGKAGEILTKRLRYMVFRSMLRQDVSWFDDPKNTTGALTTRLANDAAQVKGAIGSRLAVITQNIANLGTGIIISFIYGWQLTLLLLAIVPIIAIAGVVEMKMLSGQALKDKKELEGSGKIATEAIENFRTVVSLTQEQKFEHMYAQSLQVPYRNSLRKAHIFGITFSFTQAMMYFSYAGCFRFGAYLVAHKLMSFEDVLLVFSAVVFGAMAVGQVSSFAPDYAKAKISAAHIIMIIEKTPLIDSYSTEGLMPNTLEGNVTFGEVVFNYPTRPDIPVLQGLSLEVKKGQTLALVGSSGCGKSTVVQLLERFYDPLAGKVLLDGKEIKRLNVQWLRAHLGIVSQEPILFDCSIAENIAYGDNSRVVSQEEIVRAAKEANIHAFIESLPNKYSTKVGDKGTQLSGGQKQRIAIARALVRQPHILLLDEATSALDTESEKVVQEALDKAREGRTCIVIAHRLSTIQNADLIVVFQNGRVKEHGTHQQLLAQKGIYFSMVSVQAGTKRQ

CS(=O)(=O)O.N=C(N)Nc1ccc(C(=O)Oc2ccc3cc(C(=N)N)ccc3c2)cc1
Activity: is not a substrate [-]
